Results taken from US5843696A, “Bioassay for toxic substances activated by metabolic enzyme system” (priority 1995, dated 1998).

Experiments:
[1] = system: ATP-driven reduction of NAD+ to NADH by submitochondrial particles; experiment: RET (reverse electron transfer) test linked to cytochrome P-450 liver microsome activation
From the text: The effect of this is to drive an endergonic reduction of NAD^+ to NADH as long as there is sufficient presence of ATP. For the process to be effective, therefore, there must be a sufficient quantity of NAD^+ in the sample preparation to serve as a substrate for conversion by competent enzymes. It may also be required that other enzymes such as glutamate, or alcohol or pyruvate dehydrogenases be added from exogenous sources in the event these materials are lost by rupture of the intact mitochondria during particle preparation.
For a reverse electron transport assay in which NAD^+ is to be reduced to NADH, one obvious requirement of the assay medium is NAD^+ to be a substrate. To supply a source of electrons, succinate is a preferred substrate which can be oxidized by the complex II enzymes. In order to couple the donor electrons from succinate conversion to NAD^+ reduction, it is necessary to block transport of the electron flow through complex III enzymes. This can be easily accomplished by adding antimycin, a known inhibitor of the complex III enzymes. With this combination, if the mitochondrial membranes and enzymes are otherwise functional, electrons would flow from coenzyme Q back through complex I enzymes to NAD^+. Thus NAD^+ would be reduced to NADH, as long as ATP was present to energize the conversion. Thus, the initiation of the reaction can be controlled by the timing of ATP addition.

[2] = system: NADH oxidation by SMP; format: biochemical, beef; conditions: at the tested concentrations; no cytochrome P-450 enzymes
[3] = system: NADH oxidase activity of submitochondrial particles (enzyme complexes I, III, and IV); experiment: ETr (electron transfer) test linked to cytochrome P-450 liver microsome activation; conditions: all tested concentrations; bovine serum albumin instead of microsomes

## c1ccc2cc3ccccc3cc2c1 [anthracene]
[1]; 1 ppm, no liver microsomes
  inhibition in RET test, secondary controls lacking liver microsomes: no inhibition

## Brc1ccccc1 [bromobenzine]
[1]; 69 ppm, microsomes from phenobarbital-induced rats
  inhibition relative to controls lacking the test compound: 68%
[1]; 69 ppm, no microsomes
  inhibition in controls containing the test compound but lacking microsomes: 22%

## ClC(Cl)(Cl)Cl [carbon tetrachloride]
[2]
  inhibition in conventional ETr protocol: no inhibition
[3]
  inhibition of NADH oxidase activity, secondary control lacking liver microsomes: 4%
